What was measured:
Format in all cases: in vivo
Barnyardgrass [1] = assay: Post-emergence herbicidal activity, greenhouse
Summary of the method: (§1)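 Greenhouse pans of plants two to three weeks old were sprayed with compound solution or suspension containing about 0.4% emulsifier, at the listed application rates. Injury versus unsprayed controls was scored at about two and four weeks after treatment.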

Canada Thistle [2] = assay: Post-emergence herbicidal activity, greenhouse; conditions: Table I, 4 WAT
Summary of the method: as §1

Cocklebur [3] = assay: Post-emergence herbicidal activity, greenhouse
Summary of the method: as §1

Crabgrass = assay: Post-emergence herbicidal activity, greenhouse; conditions: Table II
Summary of the method: as §1

Downy Brome [4] = assay: Post-emergence herbicidal activity, greenhouse
Summary of the method: as §1

Hemp Sesbania = assay: Post-emergence herbicidal activity, greenhouse; conditions: Table II
Summary of the method: as §1

Johnsongrass [5] = assay: Post-emergence herbicidal activity, greenhouse; conditions: Table I, 4 WAT
Summary of the method: as §1

Lambsquarters [6] = assay: Post-emergence herbicidal activity, greenhouse
Summary of the method: as §1

Morningglory [7] = assay: Post-emergence herbicidal activity, greenhouse
Summary of the method: as §1

Panicum Spp = assay: Post-emergence herbicidal activity, greenhouse; conditions: Table II
Summary of the method: as §1

Quackgrass [8] = assay: Post-emergence herbicidal activity, greenhouse; conditions: Table I, 4 WAT
Summary of the method: as §1

Rice = assay: Post-emergence herbicidal activity, greenhouse; conditions: Table II
Summary of the method: as §1

Smartweed [9] = assay: Post-emergence herbicidal activity, greenhouse
Summary of the method: as §1

Sorghum = assay: Post-emergence herbicidal activity, greenhouse; conditions: Table II
Summary of the method: as §1

Soybean = assay: Post-emergence herbicidal activity, greenhouse; conditions: Table II
Summary of the method: as §1

Sugar Beet = assay: Post-emergence herbicidal activity, greenhouse; conditions: Table II
Summary of the method: as §1

Velvetleaf [10] = assay: Post-emergence herbicidal activity, greenhouse
Summary of the method: as §1

Wheat = assay: Post-emergence herbicidal activity, greenhouse; conditions: Table II
Summary of the method: as §1

Wild Buckwheat = assay: Post-emergence herbicidal activity, greenhouse; conditions: Table II
Summary of the method: as §1

Yellow Nutsedge [11] = assay: Post-emergence herbicidal activity, greenhouse; conditions: Table I, 4 WAT
Summary of the method: as §1

Barnyardgrass [12] = assay: Pre-emergent herbicidal activity; conditions: Table III; 11.2 kg/h; 2 WAT
Summary of the method: (§2)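 Seeds or propagules covered with soil admixed with a known amount of compound, pans bottom-watered on wet sand bench. After approximately two weeks, emerged plants counted against untreated control; index reflects average percent control per species.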

Canada Thistle [13] = assay: Pre-emergent herbicidal activity; conditions: Table III; 11.2 kg/h; 2 WAT
Summary of the method: as §2

Cocklebur [14] = assay: Pre-emergent herbicidal activity; conditions: Table III; 11.2 kg/h; 2 WAT
Summary of the method: as §2

Downy Brome [15] = assay: Pre-emergent herbicidal activity; conditions: Table III; 11.2 kg/h; 2 WAT
Summary of the method: as §2

Johnsongrass [16] = assay: Pre-emergent herbicidal activity; conditions: Table III; 11.2 kg/h; 2 WAT
Summary of the method: as §2

Lambsquarters [17] = assay: Pre-emergent herbicidal activity; conditions: Table III; 11.2 kg/h; 2 WAT
Summary of the method: as §2

Morningglory [18] = assay: Pre-emergent herbicidal activity; conditions: Table III; 11.2 kg/h; 2 WAT
Summary of the method: as §2

Quackgrass [19] = assay: Pre-emergent herbicidal activity; conditions: Table III; 11.2 kg/h; 2 WAT
Summary of the method: as §2

Smartweed [20] = assay: Pre-emergent herbicidal activity; conditions: Table III; 11.2 kg/h; 2 WAT
Summary of the method: as §2

Velvetleaf [21] = assay: Pre-emergent herbicidal activity; conditions: Table III; 11.2 kg/h; 2 WAT
Summary of the method: as §2

Yellow Nutsedge [22] = assay: Pre-emergent herbicidal activity; conditions: Table III; 11.2 kg/h; 2 WAT
Summary of the method: as §2

O=C(CN(CP(=O)(Oc1ccccc1)Oc1ccccc1)SSCCc1ccccc1)OCc1ccccc1 [IV, Glycine, N-[(diphenoxyphosphinyl)methyl]-N-[(2-phenylethyl)dithio]-, phenylmethyl ester]
3 (75-99% control): post-emergence herbicidal activity index (Cocklebur [3]; Table I, 11.2 kg/h, 4 WAT) | post-emergence herbicidal activity index (Cocklebur [3]; Table II, 5.6 kg/h, 4 WAT) | post-emergence herbicidal activity index (Downy Brome [4]; Table II, 5.6 kg/h, 4 WAT) | post-emergence herbicidal activity index (Lambsquarters [6]; Table I, 5.6 kg/h, 4 WAT) | post-emergence herbicidal activity index (Lambsquarters [6]; Table I, 11.2 kg/h, 4 WAT) | post-emergence herbicidal activity index (Lambsquarters [6]; Table II, 1.12 kg/h, 4 WAT) | post-emergence herbicidal activity index (Lambsquarters [6]; Table II, 5.6 kg/h, 4 WAT) | post-emergence herbicidal activity index (Panicum Spp; 5.6 kg/h, 4 WAT) | post-emergence herbicidal activity index (Sugar Beet; 1.12 kg/h, 4 WAT) | post-emergence herbicidal activity index (Wheat; 5.6 kg/h, 4 WAT)
3 (75-100% control): pre-emergent herbicidal activity index (Canada Thistle [13])
4 (100% control): post-emergence herbicidal activity index (Barnyardgrass [1]; Table II, 5.6 kg/h, 4 WAT) | post-emergence herbicidal activity index (Crabgrass; 5.6 kg/h, 4 WAT) | post-emergence herbicidal activity index (Sugar Beet; 5.6 kg/h, 4 WAT)
2 (50-74% control): post-emergence herbicidal activity index (Barnyardgrass [1]; Table I, 5.6 kg/h, 4 WAT) | post-emergence herbicidal activity index (Barnyardgrass [1]; Table I, 11.2 kg/h, 4 WAT) | post-emergence herbicidal activity index (Crabgrass; 1.12 kg/h, 4 WAT) | post-emergence herbicidal activity index (Johnsongrass [5]; 5.6 kg/h) | post-emergence herbicidal activity index (Morningglory [7]; Table I, 5.6 kg/h, 4 WAT) | post-emergence herbicidal activity index (Morningglory [7]; Table I, 11.2 kg/h, 4 WAT) | post-emergence herbicidal activity index (Morningglory [7]; Table II, 5.6 kg/h, 4 WAT) | post-emergence herbicidal activity index (Quackgrass [8]; 5.6 kg/h) | post-emergence herbicidal activity index (Smartweed [9]; Table I, 11.2 kg/h, 4 WAT) | post-emergence herbicidal activity index (Smartweed [9]; Table II, 5.6 kg/h, 4 WAT) | post-emergence herbicidal activity index (Sorghum; 5.6 kg/h, 4 WAT) | post-emergence herbicidal activity index (Soybean; 5.6 kg/h, 4 WAT) | post-emergence herbicidal activity index (Velvetleaf [10]; Table II, 5.6 kg/h, 4 WAT) | post-emergence herbicidal activity index (Wild Buckwheat; 5.6 kg/h, 4 WAT)
0 (0-24% control): pre-emergent herbicidal activity index (Barnyardgrass [12]) | pre-emergent herbicidal activity index (Cocklebur [14]) | pre-emergent herbicidal activity index (Downy Brome [15]) | pre-emergent herbicidal activity index (Johnsongrass [16]) | pre-emergent herbicidal activity index (Lambsquarters [17]) | pre-emergent herbicidal activity index (Morningglory [18]) | pre-emergent herbicidal activity index (Smartweed [20]) | pre-emergent herbicidal activity index (Velvetleaf [21]) | pre-emergent herbicidal activity index (Yellow Nutsedge [22])
0 (0- 24% control): post-emergence herbicidal activity index (Barnyardgrass [1]; Table II, 0.28 kg/h, 2 WAT) | post-emergence herbicidal activity index (Barnyardgrass [1]; Table II, 1.12 kg/h, 4 WAT) | post-emergence herbicidal activity index (Canada Thistle [2]; 5.6 kg/h) | post-emergence herbicidal activity index (Cocklebur [3]; Table II, 0.28 kg/h, 2 WAT) | post-emergence herbicidal activity index (Crabgrass; 0.28 kg/h, 2 WAT) | post-emergence herbicidal activity index (Downy Brome [4]; Table I, 5.6 kg/h, 4 WAT) | post-emergence herbicidal activity index (Downy Brome [4]; Table II, 0.28 kg/h, 2 WAT) | post-emergence herbicidal activity index (Downy Brome [4]; Table II, 1.12 kg/h, 4 WAT) | post-emergence herbicidal activity index (Hemp Sesbania; 0.28 kg/h, 2 WAT) | post-emergence herbicidal activity index (Hemp Sesbania; 1.12 kg/h, 4 WAT) | post-emergence herbicidal activity index (Johnsongrass [5]; 11.2 kg/h) | post-emergence herbicidal activity index (Lambsquarters [6]; Table II, 0.28 kg/h, 2 WAT) | post-emergence herbicidal activity index (Morningglory [7]; Table II, 0.28 kg/h, 2 WAT) | post-emergence herbicidal activity index (Morningglory [7]; Table II, 1.12 kg/h, 4 WAT) | post-emergence herbicidal activity index (Panicum Spp; 0.28 kg/h, 2 WAT) | post-emergence herbicidal activity index (Panicum Spp; 1.12 kg/h, 4 WAT) | post-emergence herbicidal activity index (Rice; 0.28 kg/h, 2 WAT) | post-emergence herbicidal activity index (Rice; 1.12 kg/h, 4 WAT) | post-emergence herbicidal activity index (Smartweed [9]; Table II, 0.28 kg/h, 2 WAT) | post-emergence herbicidal activity index (Sorghum; 0.28 kg/h, 2 WAT) | post-emergence herbicidal activity index (Sorghum; 1.12 kg/h, 4 WAT) | post-emergence herbicidal activity index (Soybean; 0.28 kg/h, 2 WAT) | post-emergence herbicidal activity index (Soybean; 1.12 kg/h, 4 WAT) | post-emergence herbicidal activity index (Sugar Beet; 0.28 kg/h, 2 WAT) | post-emergence herbicidal activity index (Velvetleaf [10]; Table I, 5.6 kg/h, 4 WAT) | post-emergence herbicidal activity index (Velvetleaf [10]; Table II, 0.28 kg/h, 2 WAT) | post-emergence herbicidal activity index (Velvetleaf [10]; Table II, 1.12 kg/h, 4 WAT) | post-emergence herbicidal activity index (Wheat; 0.28 kg/h, 2 WAT) | post-emergence herbicidal activity index (Wild Buckwheat; 0.28 kg/h, 2 WAT) | post-emergence herbicidal activity index (Wild Buckwheat; 1.12 kg/h, 4 WAT) | post-emergence herbicidal activity index (Yellow Nutsedge [11]; 5.6 kg/h)
1 (25-49% control): post-emergence herbicidal activity index (Canada Thistle [2]; 11.2 kg/h) | post-emergence herbicidal activity index (Cocklebur [3]; Table I, 5.6 kg/h, 4 WAT) | post-emergence herbicidal activity index (Cocklebur [3]; Table II, 1.12 kg/h, 4 WAT) | post-emergence herbicidal activity index (Downy Brome [4]; Table I, 11.2 kg/h, 4 WAT) | post-emergence herbicidal activity index (Hemp Sesbania; 5.6 kg/h, 4 WAT) | post-emergence herbicidal activity index (Quackgrass [8]; 11.2 kg/h) | post-emergence herbicidal activity index (Rice; 5.6 kg/h, 4 WAT) | post-emergence herbicidal activity index (Smartweed [9]; Table I, 5.6 kg/h, 4 WAT) | post-emergence herbicidal activity index (Smartweed [9]; Table II, 1.12 kg/h, 4 WAT) | post-emergence herbicidal activity index (Velvetleaf [10]; Table I, 11.2 kg/h, 4 WAT) | post-emergence herbicidal activity index (Wheat; 1.12 kg/h, 4 WAT) | post-emergence herbicidal activity index (Yellow Nutsedge [11]; 11.2 kg/h) | pre-emergent herbicidal activity index (Quackgrass [19])

— US4401604A, “Process for preparing thiosulfenamide derivatives of N-phosphonomethylglycine triesters” (Monsanto Company, priority 1981, dated 1983)
